The record followed here is patent US12479847B2 (DANA-FARBER CANCER INSTITUTE, INC., priority 2019, dated 2025).

The structures appear in SMILES notation. Like-named read-outs stand apart in the source and are kept apart here.

What all share (assay): KINOMEscan (ScanMAX) kinase profiling
What all share (format): binding

The target in assay [1] is T1, panel of 468 kinases (Homo sapiens, UniProt P11802).
T1 construct: purchased KINOMEscan (ScanMAX) service
The note with it: 1 μM, read-out: % control. On the procedure:
(§1) The kinase selectivity of inventive compounds 12, 75, and 77 was evaluated by KINOMEscan®. KINOMEscan® (ScanMAX™) analysis was performed against a near comprehensive panel of 468 kinases. The control percentage (% control) for inventive compounds at 1 μM in DMSO was determined by Equation 1: % control=(inventive compound−positive control)/(negative control−positive control)×100%, Equation 1
(§2) wherein the positive control is a compound with a % control value of 0% relative light units (RLU), and the negative control (i.e., DMSO) has % control value of 100% RLU. The enzyme selectivity in the present invention is defined as follows: inventive compounds are considered active for an enzyme when the observed % control is less than 35% (<35%).

In assay [2] the target is T2, panel of 468 kinases (Homo sapiens, UniProt Q8TBX8).
T2 construct: purchased KINOMEscan (ScanMAX) service
T2 sequence (Q8TBX8 1-421): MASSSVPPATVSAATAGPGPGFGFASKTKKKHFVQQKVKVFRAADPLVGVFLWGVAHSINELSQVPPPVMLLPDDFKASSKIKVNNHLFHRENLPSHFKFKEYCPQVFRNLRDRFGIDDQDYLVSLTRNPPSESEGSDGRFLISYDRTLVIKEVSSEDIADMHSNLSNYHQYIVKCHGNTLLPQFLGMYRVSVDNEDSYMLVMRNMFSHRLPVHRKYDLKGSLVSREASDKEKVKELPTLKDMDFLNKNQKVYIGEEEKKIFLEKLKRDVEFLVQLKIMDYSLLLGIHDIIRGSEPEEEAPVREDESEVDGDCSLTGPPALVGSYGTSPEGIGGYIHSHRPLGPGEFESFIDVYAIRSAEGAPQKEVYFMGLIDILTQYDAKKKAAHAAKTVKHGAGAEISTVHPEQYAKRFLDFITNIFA
The note with it: PIP5K2C; 1 μM; read-out: % control. How it is done: as §1, §2

The target in assay [3] is T3, panel of 468 kinases (Homo sapiens, UniProt P29322).
T3 construct: purchased KINOMEscan (ScanMAX) service
T3 sequence (P29322 28-1005): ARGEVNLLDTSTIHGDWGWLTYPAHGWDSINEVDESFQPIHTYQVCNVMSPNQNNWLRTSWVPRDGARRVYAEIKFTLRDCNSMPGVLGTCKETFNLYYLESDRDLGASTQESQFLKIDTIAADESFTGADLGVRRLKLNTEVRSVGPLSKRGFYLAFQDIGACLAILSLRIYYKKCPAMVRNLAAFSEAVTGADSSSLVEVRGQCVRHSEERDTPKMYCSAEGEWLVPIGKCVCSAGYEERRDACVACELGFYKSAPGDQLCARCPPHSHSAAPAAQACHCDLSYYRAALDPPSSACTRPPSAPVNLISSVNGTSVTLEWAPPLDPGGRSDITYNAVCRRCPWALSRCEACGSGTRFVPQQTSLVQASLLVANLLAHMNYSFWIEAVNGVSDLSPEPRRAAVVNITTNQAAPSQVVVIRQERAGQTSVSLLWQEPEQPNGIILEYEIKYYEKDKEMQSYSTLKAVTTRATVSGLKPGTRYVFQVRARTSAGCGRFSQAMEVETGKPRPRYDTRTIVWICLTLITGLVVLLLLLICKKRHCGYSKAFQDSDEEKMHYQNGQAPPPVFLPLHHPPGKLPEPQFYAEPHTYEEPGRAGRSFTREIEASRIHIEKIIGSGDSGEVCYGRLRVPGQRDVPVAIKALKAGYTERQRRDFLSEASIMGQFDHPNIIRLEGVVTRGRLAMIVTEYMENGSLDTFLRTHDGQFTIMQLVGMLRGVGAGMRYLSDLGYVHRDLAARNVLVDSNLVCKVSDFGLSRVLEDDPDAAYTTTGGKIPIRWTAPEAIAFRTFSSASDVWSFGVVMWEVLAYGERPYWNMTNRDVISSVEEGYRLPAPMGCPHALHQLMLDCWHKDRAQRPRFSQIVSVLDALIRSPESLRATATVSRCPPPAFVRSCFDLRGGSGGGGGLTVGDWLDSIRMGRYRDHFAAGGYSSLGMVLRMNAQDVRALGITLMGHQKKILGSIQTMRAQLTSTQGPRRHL
The note with it: EPHA8; 1 μM; read-out: % control. On the procedure: as §1, §2

Assay [4] has as its target T4, panel of 468 kinases (Homo sapiens, UniProt Q15139).
T4 construct: purchased KINOMEscan (ScanMAX) service
T4 sequence (Q15139 1-912): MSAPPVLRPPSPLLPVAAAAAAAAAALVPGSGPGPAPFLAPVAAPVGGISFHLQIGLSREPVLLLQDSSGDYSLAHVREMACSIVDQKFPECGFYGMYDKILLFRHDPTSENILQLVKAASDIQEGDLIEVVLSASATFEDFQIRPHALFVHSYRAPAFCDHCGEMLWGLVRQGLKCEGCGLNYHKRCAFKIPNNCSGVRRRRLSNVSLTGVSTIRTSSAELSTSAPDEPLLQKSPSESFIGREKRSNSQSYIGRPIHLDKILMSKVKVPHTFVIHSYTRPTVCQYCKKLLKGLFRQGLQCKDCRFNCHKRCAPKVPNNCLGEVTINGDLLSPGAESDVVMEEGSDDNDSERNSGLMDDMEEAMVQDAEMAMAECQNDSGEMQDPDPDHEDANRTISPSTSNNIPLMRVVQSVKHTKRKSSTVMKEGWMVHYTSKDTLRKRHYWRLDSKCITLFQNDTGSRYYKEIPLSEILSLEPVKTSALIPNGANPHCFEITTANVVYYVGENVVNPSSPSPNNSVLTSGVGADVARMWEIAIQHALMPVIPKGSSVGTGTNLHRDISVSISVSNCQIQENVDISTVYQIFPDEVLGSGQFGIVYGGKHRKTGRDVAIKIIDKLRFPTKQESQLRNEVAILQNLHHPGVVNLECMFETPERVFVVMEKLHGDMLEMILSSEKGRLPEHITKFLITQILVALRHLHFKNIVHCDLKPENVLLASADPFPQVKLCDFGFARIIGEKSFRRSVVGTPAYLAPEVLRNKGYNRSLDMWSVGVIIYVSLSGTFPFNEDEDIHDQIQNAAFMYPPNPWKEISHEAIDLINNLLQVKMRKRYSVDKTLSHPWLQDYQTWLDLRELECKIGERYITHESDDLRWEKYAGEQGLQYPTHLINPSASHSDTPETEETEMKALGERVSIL
The note with it: PRKD1; 1 μM; read-out: % control. How it is done:
as §1, §2

Assay [5] deals with T5, panel of 468 kinases (Homo sapiens, UniProt O14578).
T5 construct: purchased KINOMEscan (ScanMAX) service
T5 sequence (O14578 whole entry): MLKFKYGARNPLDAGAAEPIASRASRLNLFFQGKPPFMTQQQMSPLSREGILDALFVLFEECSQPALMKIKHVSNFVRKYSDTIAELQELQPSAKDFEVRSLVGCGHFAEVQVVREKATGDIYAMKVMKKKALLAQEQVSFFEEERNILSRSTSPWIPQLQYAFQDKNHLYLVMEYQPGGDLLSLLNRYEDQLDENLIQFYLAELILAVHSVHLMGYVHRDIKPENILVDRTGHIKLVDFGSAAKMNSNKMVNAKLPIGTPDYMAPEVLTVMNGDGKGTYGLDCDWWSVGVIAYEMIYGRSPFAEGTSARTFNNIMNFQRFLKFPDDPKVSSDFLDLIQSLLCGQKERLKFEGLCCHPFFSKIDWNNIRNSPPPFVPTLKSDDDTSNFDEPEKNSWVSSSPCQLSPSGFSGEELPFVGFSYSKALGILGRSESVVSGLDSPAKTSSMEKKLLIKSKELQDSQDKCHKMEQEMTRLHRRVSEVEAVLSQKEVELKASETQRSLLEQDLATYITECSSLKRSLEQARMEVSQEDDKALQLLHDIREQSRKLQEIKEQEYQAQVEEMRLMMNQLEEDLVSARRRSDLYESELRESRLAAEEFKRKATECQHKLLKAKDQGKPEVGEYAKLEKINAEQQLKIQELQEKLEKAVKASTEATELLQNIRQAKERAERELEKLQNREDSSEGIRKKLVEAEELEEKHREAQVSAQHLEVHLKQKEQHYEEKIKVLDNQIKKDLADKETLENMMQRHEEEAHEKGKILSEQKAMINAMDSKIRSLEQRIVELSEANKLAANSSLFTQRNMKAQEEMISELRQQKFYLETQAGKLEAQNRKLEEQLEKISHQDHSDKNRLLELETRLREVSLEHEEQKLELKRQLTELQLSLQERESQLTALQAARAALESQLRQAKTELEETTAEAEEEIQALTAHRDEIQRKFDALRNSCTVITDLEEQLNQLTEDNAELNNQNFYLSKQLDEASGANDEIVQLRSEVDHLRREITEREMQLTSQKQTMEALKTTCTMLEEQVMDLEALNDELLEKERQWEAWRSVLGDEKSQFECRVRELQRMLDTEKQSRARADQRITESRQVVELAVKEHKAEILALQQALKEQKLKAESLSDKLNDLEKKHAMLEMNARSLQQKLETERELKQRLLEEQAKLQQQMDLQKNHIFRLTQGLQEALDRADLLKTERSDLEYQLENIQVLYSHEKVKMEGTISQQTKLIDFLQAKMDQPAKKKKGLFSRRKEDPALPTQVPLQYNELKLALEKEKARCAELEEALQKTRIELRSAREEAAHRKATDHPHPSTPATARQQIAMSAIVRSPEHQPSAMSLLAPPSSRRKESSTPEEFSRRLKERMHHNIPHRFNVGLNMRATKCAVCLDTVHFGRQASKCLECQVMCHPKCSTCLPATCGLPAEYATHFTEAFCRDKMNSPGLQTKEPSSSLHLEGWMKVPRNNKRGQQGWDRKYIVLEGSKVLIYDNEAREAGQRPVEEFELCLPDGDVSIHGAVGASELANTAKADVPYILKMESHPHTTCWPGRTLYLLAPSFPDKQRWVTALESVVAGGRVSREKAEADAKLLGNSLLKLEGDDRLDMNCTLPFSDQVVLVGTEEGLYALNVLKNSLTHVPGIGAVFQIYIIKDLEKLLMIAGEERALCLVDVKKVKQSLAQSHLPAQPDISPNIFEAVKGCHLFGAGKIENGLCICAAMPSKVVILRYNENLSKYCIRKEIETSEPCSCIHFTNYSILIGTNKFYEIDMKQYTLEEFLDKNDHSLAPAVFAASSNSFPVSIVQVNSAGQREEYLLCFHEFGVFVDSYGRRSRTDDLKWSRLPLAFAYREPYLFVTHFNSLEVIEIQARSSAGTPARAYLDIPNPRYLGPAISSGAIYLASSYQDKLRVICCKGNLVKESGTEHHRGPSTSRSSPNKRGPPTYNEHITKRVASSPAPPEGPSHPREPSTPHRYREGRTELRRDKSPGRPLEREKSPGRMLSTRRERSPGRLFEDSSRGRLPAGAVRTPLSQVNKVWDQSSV
The note with it: CIT; 1 μM; read-out: % control. How it is done:
as §1, §2

Assay [6] concerns the target T6, panel of 468 kinases (Homo sapiens, UniProt Q9HC98).
T6 construct: purchased KINOMEscan (ScanMAX) service
The note with it: NEK6; 1 μM; read-out: % control. How it is done: as §1, §2

T1 sequence (P11802 whole entry): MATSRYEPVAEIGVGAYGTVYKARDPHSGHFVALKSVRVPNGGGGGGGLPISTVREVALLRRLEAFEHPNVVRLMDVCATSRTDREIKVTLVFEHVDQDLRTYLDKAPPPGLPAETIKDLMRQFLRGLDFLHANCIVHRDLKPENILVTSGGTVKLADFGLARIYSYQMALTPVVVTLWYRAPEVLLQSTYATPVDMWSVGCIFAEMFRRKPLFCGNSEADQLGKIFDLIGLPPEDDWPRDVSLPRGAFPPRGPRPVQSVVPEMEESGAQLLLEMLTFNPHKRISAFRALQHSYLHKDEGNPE
T6 sequence (Q9HC98 whole entry): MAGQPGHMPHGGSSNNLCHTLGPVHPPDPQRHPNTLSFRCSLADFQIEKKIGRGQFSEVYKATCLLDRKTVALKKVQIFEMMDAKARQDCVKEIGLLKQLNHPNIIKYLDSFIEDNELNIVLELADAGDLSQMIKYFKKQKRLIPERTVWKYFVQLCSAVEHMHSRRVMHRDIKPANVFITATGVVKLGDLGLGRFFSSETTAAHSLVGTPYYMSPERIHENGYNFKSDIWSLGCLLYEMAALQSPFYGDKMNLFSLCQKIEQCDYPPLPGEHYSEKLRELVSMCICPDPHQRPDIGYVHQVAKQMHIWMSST

Take `CNc1nc(Nc2ccc(S(=O)(=O)N3CCC(N4CCOCC4)CC3)cc2OC)nc2[nH]cc(Cl)c12` [Compound 12, 5-chloro-N2-(2-methoxy-4-((4-morpholinopiperidin-1-yl)sulfonyl)phenyl)-N4-methyl-7H-pyrrolo[2,3-d]pyrimidine-2,4-diamine]: the remaining binding at 1 µM on panel of 468 kinases [1] (CDK4-cyclinD1) worked out at 74%; on panel of 468 kinases [1] (CDK4-cyclinD3) it was 100%; on panel of 468 kinases [1] (CDK4) it was 68%; on panel of 468 kinases [2], 28%; on panel of 468 kinases [3], 100%; on panel of 468 kinases [4] it was 8.8%. In addition, the results for the remaining binding at 1 µM at panel of 468 kinases [5] and at panel of 468 kinases [6] were 85% and 100%, respectively.

Consider `CNc1nc(Nc2ccc(C(=O)N3CCC(N4CCOCC4)CC3)c3c2OCO3)nc2[nH]cc(Cl)c12` [Compound 75, (7-((5-chloro-4-(methylamino)-7H-pyrrolo[2,3-d]pyrimidin-2-yl)amino)benzo[d][1,3]dioxol-4-yl)(4-morpholinopiperidin-1-yl)methanone], for which the remaining binding at 1 µM at panel of 468 kinases [1] (CDK4-cyclinD1) came out at 81%; on panel of 468 kinases [1] (CDK4-cyclinD3) it was 100%; on panel of 468 kinases [1] (CDK4) it was 80%; on panel of 468 kinases [2], 0%; on panel of 468 kinases [3] it was 100%; on panel of 468 kinases [4], 7.3%. Also, the remaining binding at 1 µM is 35% on panel of 468 kinases [5] and 100% at panel of 468 kinases [6].

As for `CNc1nc(Nc2ccc(P3(=O)CCN(C4CCOCC4)CC3)cc2OC)nc2[nH]cc(Cl)c12` [Compound 77, 4-(4-((5-chloro-4-(methylamino)-7H-pyrrolo[2,3-d]pyrimidin-2-yl)amino)-3-methoxyphenyl)-1-(tetrahydro-2H-pyran-4-yl)-1,4-azaphosphinane 4-oxide], the remaining binding at 1 µM at panel of 468 kinases [1] (CDK4-cyclinD1) was 87%; on panel of 468 kinases [1] (CDK4-cyclinD3) it was 100%; on panel of 468 kinases [1] (CDK4), 71%; at panel of 468 kinases [2], 39%; on panel of 468 kinases [3], 100%; on panel of 468 kinases [4], 7%. Also, the remaining binding at 1 µM at panel of 468 kinases [5] is 93%; at panel of 468 kinases [6], 100%.
